Data published in ChEMBL document CHEMBL5465560, “Selectivity Literature for EUbOPEN Chemogenomic Library” (2024).

Tests used:
[1] = target: T1, Non-receptor tyrosine-protein kinase TNK1 (Homo sapiens) (UniProt Q13470); test: Selectivity interaction (KinomeScan (DiscoverX)) EUB0000229b TNK1; conditions: at 10 µM
T1 sequence (whole entry): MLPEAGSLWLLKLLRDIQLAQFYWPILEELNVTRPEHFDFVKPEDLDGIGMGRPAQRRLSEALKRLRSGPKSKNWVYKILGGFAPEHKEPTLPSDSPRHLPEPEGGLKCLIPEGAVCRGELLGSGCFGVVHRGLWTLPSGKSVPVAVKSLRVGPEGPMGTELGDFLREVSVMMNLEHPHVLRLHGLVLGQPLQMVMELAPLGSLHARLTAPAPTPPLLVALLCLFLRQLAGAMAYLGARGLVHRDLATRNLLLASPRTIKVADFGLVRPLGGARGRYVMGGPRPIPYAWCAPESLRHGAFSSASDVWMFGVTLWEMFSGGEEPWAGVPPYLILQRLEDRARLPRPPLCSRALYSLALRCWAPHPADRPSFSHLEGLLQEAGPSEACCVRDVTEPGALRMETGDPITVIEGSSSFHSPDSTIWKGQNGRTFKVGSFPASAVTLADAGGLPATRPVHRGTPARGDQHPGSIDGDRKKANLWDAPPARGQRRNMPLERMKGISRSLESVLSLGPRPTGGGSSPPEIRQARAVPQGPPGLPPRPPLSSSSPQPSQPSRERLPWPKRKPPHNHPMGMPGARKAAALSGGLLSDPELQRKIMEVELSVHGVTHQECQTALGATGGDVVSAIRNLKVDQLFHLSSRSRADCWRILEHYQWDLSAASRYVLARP

[2] = target: Tyrosine-protein kinase Fes/Fps (Homo sapiens) (UniProt P07332); test: Selectivity interaction (Kinase panel (DSF assay)) EUB0001559a FES
[3] = target: T2, Inhibitor of nuclear factor kappa-B kinase subunit epsilon (Homo sapiens) (UniProt Q14164); test: Selectivity interaction (KinomeScan (DiscoverX)) EUB0000666a IKBKE; conditions: at 10 µM
T2 sequence (whole entry): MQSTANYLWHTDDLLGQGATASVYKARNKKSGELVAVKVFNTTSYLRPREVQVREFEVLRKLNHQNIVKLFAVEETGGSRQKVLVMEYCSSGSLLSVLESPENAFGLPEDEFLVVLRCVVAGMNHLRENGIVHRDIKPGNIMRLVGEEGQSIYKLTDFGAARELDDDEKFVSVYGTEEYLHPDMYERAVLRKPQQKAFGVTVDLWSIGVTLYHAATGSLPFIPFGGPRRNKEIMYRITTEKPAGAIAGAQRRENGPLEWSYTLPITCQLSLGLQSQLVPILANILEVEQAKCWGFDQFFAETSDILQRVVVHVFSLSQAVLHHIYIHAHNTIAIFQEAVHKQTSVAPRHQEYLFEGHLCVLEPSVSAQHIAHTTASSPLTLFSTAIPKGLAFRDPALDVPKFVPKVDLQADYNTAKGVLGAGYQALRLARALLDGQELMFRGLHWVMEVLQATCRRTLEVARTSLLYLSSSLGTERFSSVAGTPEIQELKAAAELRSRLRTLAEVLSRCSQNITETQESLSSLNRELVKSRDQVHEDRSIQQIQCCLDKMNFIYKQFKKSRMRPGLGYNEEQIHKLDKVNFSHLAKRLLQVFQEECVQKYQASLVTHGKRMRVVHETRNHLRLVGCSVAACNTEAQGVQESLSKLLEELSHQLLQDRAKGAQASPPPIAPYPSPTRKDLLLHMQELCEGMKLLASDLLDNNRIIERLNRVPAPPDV

[4] = target: Tyrosine-protein kinase BTK (Homo sapiens, UniProt Q06187); conditions: at 10 µM
[5] = target: Cyclin-dependent kinase 5 (Homo sapiens, UniProt Q00535); test: Selectivity interaction (LanthaScreen Eu Kinase Binding Assay) EUB0001632a CDK5; conditions: at 10 µM
[6] = target: Mitogen-activated protein kinase 11 (Homo sapiens) (UniProt Q15759); test: Selectivity interaction (KinomeScan (DiscoverX)) EUB0000607a MAPK11; conditions: at 10 µM
[7] = target: Mitogen-activated protein kinase 7 (Homo sapiens) (UniProt Q13164); test: Selectivity interaction (KinomeScan (DiscoverX)) EUB0000607a MAPK7; conditions: at 10 µM
[8] = target: LIM domain kinase 1 (Homo sapiens) (UniProt P53667); test: Selectivity interaction (KinomeScan (DiscoverX)) EUB0001049a LIMK1; conditions: at 1 µM
[9] = target: Mitogen-activated protein kinase 9 (Homo sapiens, UniProt P45984); test: Selectivity interaction (KinomeScan (DiscoverX)) EUB0001049a MAPK9; conditions: at 1 µM
[10] = target: T3, Serine/threonine-protein kinase TBK1 (Homo sapiens) (UniProt Q9UHD2); test: Selectivity interaction (KinomeScan (DiscoverX)) EUB0000695a TBK1; conditions: at 100 nM
T3 sequence (whole entry): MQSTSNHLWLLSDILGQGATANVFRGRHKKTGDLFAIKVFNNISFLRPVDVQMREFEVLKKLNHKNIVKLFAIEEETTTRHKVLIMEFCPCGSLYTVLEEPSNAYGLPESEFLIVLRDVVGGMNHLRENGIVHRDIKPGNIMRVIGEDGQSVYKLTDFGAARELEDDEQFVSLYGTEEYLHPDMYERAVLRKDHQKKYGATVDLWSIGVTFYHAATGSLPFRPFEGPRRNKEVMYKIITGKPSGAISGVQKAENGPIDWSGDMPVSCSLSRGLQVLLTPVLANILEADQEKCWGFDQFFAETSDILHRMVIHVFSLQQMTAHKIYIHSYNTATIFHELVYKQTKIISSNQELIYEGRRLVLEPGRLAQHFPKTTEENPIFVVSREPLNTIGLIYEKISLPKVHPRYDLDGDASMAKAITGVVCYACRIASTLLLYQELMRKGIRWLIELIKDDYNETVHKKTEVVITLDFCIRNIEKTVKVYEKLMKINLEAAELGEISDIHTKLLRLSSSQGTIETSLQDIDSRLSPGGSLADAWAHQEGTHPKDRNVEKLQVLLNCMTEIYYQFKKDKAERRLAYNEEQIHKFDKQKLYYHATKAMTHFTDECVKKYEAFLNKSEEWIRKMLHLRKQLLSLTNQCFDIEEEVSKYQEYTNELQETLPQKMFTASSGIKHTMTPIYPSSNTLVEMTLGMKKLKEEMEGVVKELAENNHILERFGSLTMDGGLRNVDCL

[11] = target: Histone-lysine N-methyltransferase 2C (Homo sapiens) (UniProt Q8NEZ4); conditions: at 10 µM
Histone-lysine N-methyltransferase 2C (Homo sapiens), sequence (Q8NEZ4 whole entry): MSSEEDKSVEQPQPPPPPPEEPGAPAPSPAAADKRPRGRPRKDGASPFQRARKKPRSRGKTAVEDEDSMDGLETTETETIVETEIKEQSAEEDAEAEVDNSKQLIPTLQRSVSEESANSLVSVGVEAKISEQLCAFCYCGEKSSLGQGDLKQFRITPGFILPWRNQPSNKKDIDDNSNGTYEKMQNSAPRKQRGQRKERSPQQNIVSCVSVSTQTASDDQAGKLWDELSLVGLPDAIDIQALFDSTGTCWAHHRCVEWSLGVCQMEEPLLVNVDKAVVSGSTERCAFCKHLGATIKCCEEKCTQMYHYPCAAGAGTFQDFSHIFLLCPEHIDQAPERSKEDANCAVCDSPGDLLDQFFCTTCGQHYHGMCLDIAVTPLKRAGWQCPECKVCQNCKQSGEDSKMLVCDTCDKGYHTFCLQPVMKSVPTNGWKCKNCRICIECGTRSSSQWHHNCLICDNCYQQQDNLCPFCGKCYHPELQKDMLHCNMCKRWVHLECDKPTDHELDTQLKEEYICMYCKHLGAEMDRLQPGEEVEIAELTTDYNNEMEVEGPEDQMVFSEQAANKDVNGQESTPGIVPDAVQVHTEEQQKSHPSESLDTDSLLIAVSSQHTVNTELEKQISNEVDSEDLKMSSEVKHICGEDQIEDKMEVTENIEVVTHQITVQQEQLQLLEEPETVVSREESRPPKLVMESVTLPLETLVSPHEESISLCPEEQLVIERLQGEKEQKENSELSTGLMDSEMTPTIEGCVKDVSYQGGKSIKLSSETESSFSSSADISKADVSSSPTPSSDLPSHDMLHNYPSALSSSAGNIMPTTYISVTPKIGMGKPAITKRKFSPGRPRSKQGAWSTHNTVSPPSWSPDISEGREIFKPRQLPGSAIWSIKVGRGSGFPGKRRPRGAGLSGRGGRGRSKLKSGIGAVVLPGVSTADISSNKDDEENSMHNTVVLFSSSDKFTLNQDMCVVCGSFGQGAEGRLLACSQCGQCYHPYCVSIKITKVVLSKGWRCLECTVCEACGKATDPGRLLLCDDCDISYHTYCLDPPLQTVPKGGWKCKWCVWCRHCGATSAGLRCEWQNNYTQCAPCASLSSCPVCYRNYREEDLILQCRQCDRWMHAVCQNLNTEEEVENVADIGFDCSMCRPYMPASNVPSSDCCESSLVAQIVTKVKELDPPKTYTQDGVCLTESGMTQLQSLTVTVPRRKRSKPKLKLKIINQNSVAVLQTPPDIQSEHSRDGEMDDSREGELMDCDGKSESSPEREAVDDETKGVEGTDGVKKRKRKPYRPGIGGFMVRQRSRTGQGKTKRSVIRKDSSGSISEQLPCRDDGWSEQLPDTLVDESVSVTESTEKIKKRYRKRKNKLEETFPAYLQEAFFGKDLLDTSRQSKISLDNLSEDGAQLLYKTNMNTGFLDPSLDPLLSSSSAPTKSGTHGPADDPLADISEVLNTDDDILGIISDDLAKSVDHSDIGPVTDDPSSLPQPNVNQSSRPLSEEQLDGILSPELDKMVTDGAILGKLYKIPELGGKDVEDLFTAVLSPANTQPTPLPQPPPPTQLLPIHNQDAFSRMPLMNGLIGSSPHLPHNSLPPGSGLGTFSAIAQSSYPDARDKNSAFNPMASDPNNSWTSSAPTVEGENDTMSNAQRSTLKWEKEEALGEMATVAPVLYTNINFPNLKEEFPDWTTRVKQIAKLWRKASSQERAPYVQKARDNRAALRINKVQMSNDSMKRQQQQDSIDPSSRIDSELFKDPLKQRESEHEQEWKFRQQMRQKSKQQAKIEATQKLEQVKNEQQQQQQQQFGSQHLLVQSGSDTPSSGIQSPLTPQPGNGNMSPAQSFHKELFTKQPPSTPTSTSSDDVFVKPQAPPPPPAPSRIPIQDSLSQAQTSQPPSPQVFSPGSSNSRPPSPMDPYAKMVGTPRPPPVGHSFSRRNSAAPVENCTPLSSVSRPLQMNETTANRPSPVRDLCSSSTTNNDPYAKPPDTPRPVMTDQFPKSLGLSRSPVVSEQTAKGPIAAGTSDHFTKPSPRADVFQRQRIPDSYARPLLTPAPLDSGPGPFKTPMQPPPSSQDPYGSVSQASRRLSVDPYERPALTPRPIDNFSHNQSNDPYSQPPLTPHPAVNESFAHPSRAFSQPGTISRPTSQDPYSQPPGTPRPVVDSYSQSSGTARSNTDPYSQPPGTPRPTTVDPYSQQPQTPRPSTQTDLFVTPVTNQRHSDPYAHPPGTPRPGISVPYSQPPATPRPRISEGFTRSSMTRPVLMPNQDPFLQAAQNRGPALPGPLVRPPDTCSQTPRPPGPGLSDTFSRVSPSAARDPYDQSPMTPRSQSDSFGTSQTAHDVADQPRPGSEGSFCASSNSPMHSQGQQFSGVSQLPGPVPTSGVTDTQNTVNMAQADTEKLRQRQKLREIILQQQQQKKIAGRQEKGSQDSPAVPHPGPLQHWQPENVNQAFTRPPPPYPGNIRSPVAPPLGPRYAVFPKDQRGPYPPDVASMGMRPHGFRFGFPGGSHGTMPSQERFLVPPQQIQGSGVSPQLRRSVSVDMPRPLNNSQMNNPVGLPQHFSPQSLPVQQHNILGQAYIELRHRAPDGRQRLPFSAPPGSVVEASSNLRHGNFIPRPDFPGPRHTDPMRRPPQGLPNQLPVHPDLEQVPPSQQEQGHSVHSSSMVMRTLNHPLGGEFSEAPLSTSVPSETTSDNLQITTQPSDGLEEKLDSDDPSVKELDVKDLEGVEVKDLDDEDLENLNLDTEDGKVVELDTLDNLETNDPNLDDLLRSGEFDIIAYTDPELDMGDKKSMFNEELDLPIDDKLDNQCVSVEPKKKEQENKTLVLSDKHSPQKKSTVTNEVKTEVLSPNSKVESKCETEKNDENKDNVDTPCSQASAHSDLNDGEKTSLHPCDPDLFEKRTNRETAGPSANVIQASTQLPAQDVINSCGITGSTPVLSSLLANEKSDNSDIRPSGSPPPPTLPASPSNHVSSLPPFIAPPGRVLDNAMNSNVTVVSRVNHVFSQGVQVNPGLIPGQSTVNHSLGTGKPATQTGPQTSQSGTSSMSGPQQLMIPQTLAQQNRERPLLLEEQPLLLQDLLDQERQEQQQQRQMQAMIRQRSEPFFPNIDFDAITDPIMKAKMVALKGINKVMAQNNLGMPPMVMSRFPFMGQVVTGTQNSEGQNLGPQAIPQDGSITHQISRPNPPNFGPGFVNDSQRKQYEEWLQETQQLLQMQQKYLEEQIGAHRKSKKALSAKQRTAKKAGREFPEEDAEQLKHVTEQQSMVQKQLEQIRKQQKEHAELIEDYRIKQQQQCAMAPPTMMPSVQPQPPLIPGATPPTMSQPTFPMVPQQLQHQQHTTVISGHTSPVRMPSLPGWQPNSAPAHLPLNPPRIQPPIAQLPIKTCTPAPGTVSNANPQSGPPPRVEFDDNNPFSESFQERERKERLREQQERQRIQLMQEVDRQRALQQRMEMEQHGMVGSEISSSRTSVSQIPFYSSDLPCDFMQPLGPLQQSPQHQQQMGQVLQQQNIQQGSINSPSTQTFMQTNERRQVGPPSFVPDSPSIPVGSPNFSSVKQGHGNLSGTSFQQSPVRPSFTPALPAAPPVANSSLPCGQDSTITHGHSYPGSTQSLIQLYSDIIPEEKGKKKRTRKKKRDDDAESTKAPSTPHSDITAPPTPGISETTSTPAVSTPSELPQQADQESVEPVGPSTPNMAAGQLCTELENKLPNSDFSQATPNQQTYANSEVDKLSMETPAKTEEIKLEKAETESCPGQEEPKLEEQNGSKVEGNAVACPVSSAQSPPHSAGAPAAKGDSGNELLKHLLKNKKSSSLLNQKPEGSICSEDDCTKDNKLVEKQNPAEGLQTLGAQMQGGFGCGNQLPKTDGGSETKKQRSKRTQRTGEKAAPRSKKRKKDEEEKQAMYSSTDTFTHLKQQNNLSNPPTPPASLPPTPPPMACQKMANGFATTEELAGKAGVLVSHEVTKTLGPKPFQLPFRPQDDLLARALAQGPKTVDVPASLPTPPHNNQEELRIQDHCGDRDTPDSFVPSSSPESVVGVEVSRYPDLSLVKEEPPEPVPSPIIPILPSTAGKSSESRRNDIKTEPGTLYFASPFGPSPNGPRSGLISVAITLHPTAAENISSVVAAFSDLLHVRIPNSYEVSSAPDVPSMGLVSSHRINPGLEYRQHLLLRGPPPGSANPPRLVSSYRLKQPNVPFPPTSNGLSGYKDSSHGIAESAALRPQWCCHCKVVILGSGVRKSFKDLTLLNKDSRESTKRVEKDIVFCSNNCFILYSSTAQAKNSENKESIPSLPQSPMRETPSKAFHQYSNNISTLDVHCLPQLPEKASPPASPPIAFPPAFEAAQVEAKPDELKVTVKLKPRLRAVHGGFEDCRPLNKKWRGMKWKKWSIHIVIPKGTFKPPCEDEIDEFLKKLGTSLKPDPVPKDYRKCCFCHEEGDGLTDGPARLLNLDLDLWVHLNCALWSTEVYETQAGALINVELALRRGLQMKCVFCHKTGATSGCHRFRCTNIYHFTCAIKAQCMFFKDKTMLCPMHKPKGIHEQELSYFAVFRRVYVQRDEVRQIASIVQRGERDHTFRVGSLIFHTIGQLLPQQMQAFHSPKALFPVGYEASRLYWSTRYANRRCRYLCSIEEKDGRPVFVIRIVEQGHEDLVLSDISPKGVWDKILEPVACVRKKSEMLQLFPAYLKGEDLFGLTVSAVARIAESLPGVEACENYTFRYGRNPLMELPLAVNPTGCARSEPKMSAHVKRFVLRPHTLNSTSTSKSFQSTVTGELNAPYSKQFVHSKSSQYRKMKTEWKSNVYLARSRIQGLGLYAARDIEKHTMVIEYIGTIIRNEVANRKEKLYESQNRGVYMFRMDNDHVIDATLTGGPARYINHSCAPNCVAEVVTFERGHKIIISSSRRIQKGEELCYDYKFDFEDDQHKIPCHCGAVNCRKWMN

Cyclin-dependent kinase 5, sequence (Q00535 whole entry, looked up): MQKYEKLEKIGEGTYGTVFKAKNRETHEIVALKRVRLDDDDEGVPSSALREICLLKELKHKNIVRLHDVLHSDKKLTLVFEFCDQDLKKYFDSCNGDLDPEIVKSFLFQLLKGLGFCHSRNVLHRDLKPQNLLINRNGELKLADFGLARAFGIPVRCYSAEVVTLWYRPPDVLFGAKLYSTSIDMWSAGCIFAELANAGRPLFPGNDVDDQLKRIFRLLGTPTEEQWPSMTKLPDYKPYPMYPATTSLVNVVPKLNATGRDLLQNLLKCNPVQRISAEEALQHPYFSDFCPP

Question: How did the % binding [1] turn out when COc1cc(N(C)c2ccnc3ccc(C(F)(F)F)cc23)cc(OC)c1OC was run?
Answer: 63%

Question: CN(C(=O)c1cnn2cccnc12)c1cc2c(cc1N1CCOCC1)C(=O)N(C[C@@H](F)C(C)(C)O)C2 was tested. Which dTM [2] did it give?
Answer: -0.6 K

Question: O=C(NOC[C@H](O)CO)c1ccc(F)c(F)c1Nc1ccc(I)cc1F was tested. Which % of control [3] did it give?
Answer: 100%

Question: How did the % of control [4] turn out when Cc1cc([C@@H](C)Nc2ccccc2C(=O)O)c2nc(N3CCOCC3)cc(=O)n2c1 [AZD-6482] was run?
Answer: 97%

Question: With Cn1cc(-n2cnc3c(NCc4nc5cc(Cl)c(Cl)cc5[nH]4)nc(N4CCOCC4)nc32)cn1 as the molecule, how does the % of inhibition [5] read?
Answer: -96.6%

Question: What does the source list for CNC(=O)Nc1ccc(-c2nc(N3CC4CCC(C3)O4)c3cnn(C4CCC5(CC4)OCCO5)c3n2)cc1?
Answer: % of control [6]: 100%; % of control [7]: 100%

Question: For COc1cc(Nc2nc(C)cc(-c3cnn4nc(OC)ccc34)n2)cc(C(F)(F)F)c1, which % of control [8] is on record?
Answer: 75%

Question: And the % of control [9]?
Answer: 82%

Question: Cc1cc(F)c(C(=O)Nc2cccc(-c3nncn3C(C)C)n2)cc1-n1cnc(C2CC2)c1 was tested. Which % of control [10] did it give?
Answer: 90%

Question: Which % activity [11] does the source give for CNCCN1CCC(c2cc(CN(C)C(=O)c3cccc(Oc4ccccc4)c3)ccn2)CC1 here?
Answer: > 90%
